Measurements: paper PMC6344527, “Toxicity and possible mechanisms of action of honokiol from Magnolia denudata seeds against four mosquito species” (Scientific Reports, 2019)
≈ marks a conversion by molar mass, not a printed value. Where two headings read alike, the source gives them in different places.

Tests used:
larval Ae. aegypti = system: larval Ae. aegypti; parameters: method as in PMID 23676010; conditions: cited from earlier work
[1] = target: acetylcholinesterase (AChE) from third-instar Ae. aegypti larvae (Aedes aegypti, UniProt A4GND7); experiment: acetylcholinesterase inhibition assay; type: biochemical; conditions: based on IC50 values
acetylcholinesterase (AChE) from third-instar Ae. aegypti larvae, sequence (A4GND7 37-679): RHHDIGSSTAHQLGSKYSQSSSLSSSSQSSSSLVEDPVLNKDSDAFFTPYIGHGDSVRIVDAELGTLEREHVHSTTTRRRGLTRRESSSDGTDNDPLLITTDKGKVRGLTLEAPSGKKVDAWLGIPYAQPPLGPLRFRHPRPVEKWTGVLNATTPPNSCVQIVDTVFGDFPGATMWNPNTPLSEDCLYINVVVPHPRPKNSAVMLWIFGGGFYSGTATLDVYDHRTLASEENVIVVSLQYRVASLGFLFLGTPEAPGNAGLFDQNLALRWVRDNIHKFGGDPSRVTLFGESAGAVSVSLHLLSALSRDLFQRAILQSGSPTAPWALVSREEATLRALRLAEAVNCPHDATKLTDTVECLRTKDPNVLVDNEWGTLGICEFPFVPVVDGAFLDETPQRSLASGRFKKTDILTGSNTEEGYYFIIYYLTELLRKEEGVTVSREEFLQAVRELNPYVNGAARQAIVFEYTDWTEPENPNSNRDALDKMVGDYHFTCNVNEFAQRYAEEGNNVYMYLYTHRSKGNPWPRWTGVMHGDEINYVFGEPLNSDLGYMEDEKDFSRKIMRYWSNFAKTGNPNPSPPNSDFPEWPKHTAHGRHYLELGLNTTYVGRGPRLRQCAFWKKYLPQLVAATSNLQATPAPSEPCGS
Protocol: The in vitro AChE inhibitory activity of the test compounds was assessed according to the method of Perumalsamy et al.[42]. Third-instar Ae. aegypti larvae were used in all experiments. Whole bodies of 50 larvae were homogenized in 1 mL of ice-cold 0.1 M phosphate buffer (pH 8.0) using a glass tissue homogenizer. After filtering through cheesecloth, the homogenate was centrifuged at 1,000 × g at 4 °C for 5 min. The supernatant was used directly as the enzyme source for AChE. The protein levels were determined using the Bradford Protein Assay Kit (Bio-Rad Laboratories, Hercules, CA, USA) using BSA as the standard. The reaction mixture consisted of 50 µL of the crude enzyme preparation (4.3–4.8 µg protein equivalents), 150 µL of 0.1 M phosphate buffer, 20 µL of 3 mM DTNB in phosphate buffer (pH 7.0), and 1 µL of various concentrations of each test compound in ethanol. The reaction mixture was incubated at 30 °C for 5 min, and 20 µL of 32 mM ATChI was then added to the mixture. After incubation for 30 min, the reaction was terminated by adding 20 µL of 5 mM eserine salicylate. Absorbance was recorded at 412 nm using a VersaMax microplate reader (Molecular Devices, Sunnyvale, CA, USA). […] The results are expressed as the means ± standard errors (SEs) of triplicate samples from three independent experiments.
(§1) The concentration of the test compounds required to produce 50% AChE inhibitory activity (IC50) was determined using the SAS 9.13 program (Cary: SAS Institute; 2014). Concentration-mortality data were subjected to probit analysis using the SAS 9.13 program. […] Statistical analyses were performed using the SAS 9.13 program. Multiple linear regression and correlation analysis were performed using the SPSS 24 program (Armonk: IBM Corp.; 2016).

[2] = system: third-instar larvae of insecticide-susceptible Culex pipiens pallens; experiment: contact mortality bioassay, 24 h exposure; type: in vivo; conditions: 24 h exposure; for LC50: Culex pipiens, 24 h
Protocol: (§2) A contact mortality bioassay[25] was used to evaluate the toxicity of all compounds against third-instar larvae of the four mosquito species. Each test compound in methanol was suspended in DW with Triton X-100 (20 µL/L). Groups of 20 mosquito larvae were separately placed into paper cups (270 mL) containing each compound solution (250 mL). […] Negative controls consisted of a methanol–Triton X-100 solution in DW.
(§3) Treated and control (methanol–Triton X-100 solution only) larvae were maintained under the same conditions as those used for colony maintenance without providing food. Larval mortalities were determined 24 h post-treatment. […] All treatments were performed three times using 20 larvae per replicate.
as §1

[3] = system: third-instar larvae of insecticide-susceptible Aedes aegypti; experiment: contact mortality bioassay, 24 h exposure; type: in vivo; conditions: 24 h exposure; for LC50: Aedes aegypti, 24 h
Protocol: as §2, §3, §1

[4] = system: third-instar larvae of insecticide-susceptible Aedes albopictus; experiment: contact mortality bioassay, 24 h exposure; type: in vivo
Protocol: as §2, §3, §1

[5] = system: third-instar larvae of insecticide-resistant Anopheles sinensis; experiment: contact mortality bioassay, 24 h exposure; type: in vivo
Protocol: as §2, §3, §1

Larvae of An. sinensis = system: Larvae of An. sinensis; parameters: method as in PMID 26085316; conditions: An. sinensis larvae compared with Ae. aegypti larvae; cited from earlier work
AaAQP4 = system: AaAQP4; parameters: method as in PMID 24260359; conditions: larval Ae. aegypti anal gills; cited from earlier work
AaV-type H^+-ATPase = system: AaV-type H^+-ATPase; parameters: method as in PMID 24260359; conditions: larval Ae. aegypti; cited from earlier work

## Oc1ccccc1 [Phenol]
Larval Ae. aegypti
  LC50: 194 mg/L (≈ 2060 µM)
[1]
  AChE inhibitory activity (in words): lowest of all of the compounds that were examined
[2]; Table 6, structure-activity series, read-out: LC50 (mg/L) (95% CI)
  LC50: 41.7 mg/L (≈ 443 µM)
[2]; Table 6, structure-activity series
  LC90 (mg/L) (95% CI): 185.1 (133.5–306.6) mg/L
[3]; Table 7, structure-activity series, read-out: LC50 (mg/L) (95% CI)
  LC50: 43.2 mg/L (≈ 459 µM)
[3]; Table 7, structure-activity series
  LC90 (mg/L) (95% CI): 207.1 (145.1–363.6) mg/L

## COP(=S)(OC)Oc1ccc(Sc2ccc(OP(=S)(OC)OC)cc2)cc1 [Temephos, temephos, reference compound]
[4]; Aedes albopictus, 24 h, read-out: LC50 (mg/L) (95% CI)
  LC50: 0.0132 mg/L (≈ 0.0283 µM)
[4]; Table 4, 24 h exposure
  LC90 (mg/L) (95% CI): 0.0778 (0.0547–0.1343) mg/L
[4]; probit slope, Table 4, 24 h exposure
  Slope ± SE: 1.6 ± 0.21
[2]; read-out: LC50 (mg/L) (95% CI), Table 2, KS-CP strain
  LC50: 0.0162 mg/L (≈ 0.0347 µM)
[2]; Table 2, KS-CP strain
  LC90 (mg/L) (95% CI): 0.0749 (0.0551–0.1177) mg/L
[5]; Anopheles sinensis, 24 h, read-out: LC50 (mg/L) (95% CI)
  LC50: 0.4 mg/L (≈ 0.857 µM)
[5]; Table 5, larvae resistant to deltamethrin and temephos, 24 h exposure
  LC90 (mg/L) (95% CI): 1.39 (1.05–2.13) mg/L
[5]; probit slope, Table 5, larvae resistant to deltamethrin and temephos, 24 h exposure
  Slope ± SE: 2.2 ± 0.15
[3]; read-out: LC50 (mg/L) (95% CI), Table 3
  LC50: 0.0125 mg/L (≈ 0.0268 µM)
[3]; Table 3
  LC90 (mg/L) (95% CI): 0.0658 (0.0479–0.1059) mg/L
Larvae of An. sinensis
  relative susceptibility ratio (RSR): 29

## COP(=S)(OC)Oc1ccc(SC)c(C)c1 [fenthion]
Larvae of An. sinensis
  relative susceptibility ratio (RSR): 11

## CC1(C)[C@H](C(=O)O[C@H](C#N)c2cccc(Oc3ccccc3)c2)[C@@H]1C=C(Br)Br [deltamethrin]
Larvae of An. sinensis
  relative susceptibility ratio (RSR): 611

## CCCCC/C=C/C=C/C(=O)NCC(C)C [pellitorine]
AaAQP4
  AaAQP4 expression levels: inhibited the AaAQP4 expression levels
AaV-type H^+-ATPase
  expression levels of the gene encoding AaV-type H^+-ATPase: slight decreases

## Cc1ccc(C(C)C)cc1O [carvacrol]
Larval Ae. aegypti
  LC50: 69 mg/L (≈ 459 µM)
